The source of these data is paper PMC10892451, “Evaluation of the Antibacterial Activity of New Dermaseptin Derivatives against Acinetobacter baumannii” (Pharmaceuticals, 2024).

Series [1] relates to A. baumannii clinical specimen MDR. Put plainly: microbe, parasite or virus in culture. Conditions: for A. baumannii MIC: broth microdilution, Mueller-Hinton broth, 5 × 10^5 CFU/mL, 24 h at 37 °C, clinical MDR isolate, triplicate. How it is done: (§1) The bacterial strain used in the present study came from the stock culture of the microbiology laboratory of the Federal University of the Delta of Parnaíba—UFDPar, Parnaíba—PI, Brazil. The strain used in the tests was A. baumannii clinical specimen MDR (multidrug resistant), which developed resistance to major antibiotic classes and carbapenem-resistant isolates. Before performing all experiments, the selected strains were cultured in Petri dishes containing Mueller-Hinton agar (Difco™, Piaui, Brazil). Then, under aerobic conditions, they were incubated in a bacteriological oven for 24 h at 35 ± 2 °C. After incubation, the colonies that grew alone were collected with a disposable bacteriological loop and suspended in a sterile saline solution (0.85% NaCl (w/v), Parnaíba—UFDPar, Piaui, Brazil) in order to reach an absorbance pattern between 0.08 and 0.13 at 625 nm, as tested with a UV-vis spectrophotometer (Shimadzu, Japan), thus corresponding to 0.5 McFarland scale (1–2 × 10^8 CFU/mL), as recommended by the Clinical Laboratory Standards Institute CLSI [75]. Once standardized, the obtained bacterial suspension was used to prepare the bacterial inoculum used in the execution of MIC determination protocols.
(§2) In accordance with the standards recommended by CLSI [75], the antibacterial potential of the peptides was evaluated with the method of determining the MIC, i.e., the broth microdilution method. Using a 96-well microdilution plate (KASVI, Parnaíba, Brazil), the antibacterial effect was analyzed against the bacterial strains. Therefore, 5 μL of each peptide was added to the first line of the microtiter wells containing 195 μL Mueller-Hinton (M-H) broth (Life Technologies, New York, NY, USA), followed by two-fold serial dilutions with final concentrations ranging from 25 µg/mL to 0.19 µg/mL for all peptides. The volume of the bacterial inoculum was equal to 50 µL, which was added to the test wells with the M-H broth at the beginning of the experiment to give a final concentration of 5 × 10^5 CFU/mL and to reach a final volume of 100 μL in each well after discarding the last additional volume of 100 μL following the serial dilution. MIC was defined as the lowest concentration of an antibacterial agent expressed in μg/mL, which, under strictly controlled in vitro conditions, completely prevents visible bacterial growth after incubation for 24 h at 37 °C in aerobic conditions. […] All tests were performed in triplicate. In order to guarantee the quality and safety of the protocols of this study, the manipulation of bacterial strains was performed under aseptic conditions.
On the technique in general: Dilution methods test growth across graded concentrations, often in twofold steps.

The test system is the same in series [2]. Put plainly: microbe, parasite or virus in culture. Particulars: for A. baumannii MBC: 10 μL of wells at or above MIC seeded onto Mueller-Hinton agar, clinical MDR isolate, triplicate. How it is done:
After determining the MIC, the MBC was assessed against A. baumannii MDR. Meropenem was used as an antibacterial control drug. The loaded solvent saline served as a negative control. […] Meropenem targets Gram-positive and Gram-negative bacteria, as well as anaerobic bacteria. Similar to other carbapenems, meropenem disrupts the synthesis of bacterial cell walls, inhibiting growth and leading to cell death.
as §1, §2

The subject of another series is A. baumannii MDR. Description: AFM average surface roughness of treated bacteria. The class given is cell-based, Acinetobacter baumannii. Conditions: AFM tapping mode, bacteria from MIC assay wells after 24 h, n = 10 areas of 0.3 × 0.3 µm; non-treated bacteria 25.77 nm. The text has this:
In order to understand how our cationic peptide eliminates bacteria, we must consider its effect on the outer membrane found in Gram-negative bacteria. Here, we use atomic force microscopy (AFM) to directly investigate K4S4(1-16) interactions with the outer membrane of A. baumannii and characterize the biophysical consequences of K4S4(1-16) treatment. However, Gram-negative bacteria are complex organisms, with two membranes and molecular machinery dedicated to maintaining membrane stability. The images show the morphology of a clinical strain of A. baumannii before and after treatment with the derivative. […] The cell differed considerably from the cocci-bacilli-shaped cell observed without peptide treatment. Therefore, this cationic peptide appears to have a highly disruptive effect. […]
With the objective of observing possible morphological alterations caused by the action of an active peptide from the DRS families, bacterial growth control and bacteria treated with K4S4 (1-16) were evaluated using Atomic Force Microscopy (AFM). […]
Statistical analyses were performed with the GraphPad Prism 9.0 software (GraphPad Software Inc.) for cell viability assays. The difference between the average roughness (Ra) was statistically analyzed using t Test in the GraphPad Prism 8.0 software. […]

Series [3] relates to HEp-2 cells. Put plainly: MTT cytotoxicity assay on HEp-2 cells. The class given is cell-based, human. Conditions: peptide concentration causing 50% cytotoxicity, 72 h treatment, 1.5-100 μg/mL, triplicate at three different times. (Tetrazolium dyes change colour on reduction, which living cells bring about.)
Description: It was obtained from the American Type Culture Collection (ATCC, Manassas, VA, USA). Cells were routinely maintained in a humidified atmosphere of 5% CO2 at 37 °C. The Culture Medium Dulbecco’s Modified Eagle Medium (DMEM) (Biofaster, Tunis, Tunisia) was supplemented with 1% L-glutamine, 1% penicillin/streptomycin and 10% (v/v) heat inactivated fetal bovine serum (FBS)(Biofaster, Tunis, Tunisia).
The cytotoxicity test consisted of measuring the viability of cells in culture when they came into contact with the peptides being tested. Cytotoxicity was determined using the 3-(4,5-dimethylthiazol-2-yl)-2,5-diphenyl tetrazolium bromide (MTT) colorimetric assay on cultured cells (HEp-2 lines). […] After 72 h of incubation, the supernatant was collected and the viability of the cells treated with the peptides was determined by the MTT method. […] After 4 h of incubation at 37 °C, the optical density (OD) was measured at 570 nm using an ELISA reader (Multiskan EX, Labsystems, Paris, France), after adding 100 μL of DMSO to dissolve the crystals of formazan. The results were expressed as a percentage of viability relative to the negative control without a peptide, according to the formula: (Viability percentage = (DO544 nm peptide/DO544 nm control) × 100). […]
The conditions of series [4]: cited from earlier work.
Series [5] relates to HEp-2 cells. Conditions: cited from earlier work. How it is done:
(§3) Cells were exposed to increasing concentrations of peptides, ranging from 1.5 to 100 μg/mL. The cytotoxicity of DRSs was concentration dependent, and peptide 50% cytotoxic concentration (CC50) values were determined (Table 2).

The subject of series [6] is multi-drug resistant Salmonella Enteritidis. Particulars: cited from earlier work.
The conditions of series [7]: cited from earlier work. How it is done: as §3
The source holds these as a separate data set.

In brackets after ≈: the same amount, converted by molar mass. Ends that are not written are not given here.

For the compound `C[C@@H](O)[C@H]1C(=O)N2C(C(=O)O)=C(S[C@@H]3CN[C@H](C(=O)N(C)C)C3)[C@H](C)[C@H]12` [meropenem], in series [1] (Acinetobacter baumannii, 24 h, read-out: A. baumannii MIC), the MIC was 32 µg/mL (≈ 83.4 µM). Besides, the MBC in series [2] (Acinetobacter baumannii, read-out: A. baumannii MBC) stood at 64 µg/mL (≈ 167 µM).
In the case of ALWKTLLKKVLKAAAK [K4S4(1-16)], the “roughness on the cell surface after treatment” value with A. baumannii MDR was determined as 43.41 nm. Besides, in series [1], the “A. baumannii MIC” value worked out at 6.25 µg/mL. In series [2], the “A. baumannii MBC” value turned out to be 12.5 µg/mL. Besides, the “CC50 Hep-2 Cells” value with HEp-2 cells [3] came to 68.9 µg/mL.
With ALWKTLLKKVLKAAAKAALKAVLVGANA [K4K20S4], the “A. baumannii MIC” value in series [1] came out at 3.125 µg/mL. In addition, the “A. baumannii MBC” value in series [2] was found to be 6.25 µg/mL.
Consider ALWMTLLKKVLKAAAKAALNAVLVGANA-OH [S4], for which the hemolytic effect entry in series [4] is reported as “potent hemolytic effect”. The “A. baumannii MIC” value in series [1] worked out at 12.5 µg/mL. The “A. baumannii MBC” value in series [2] turned out to be 25 µg/mL. Moreover, the maximal non-cytotoxic concentration in the series on HEp-2 cells [5] was 16 µg/mL.
With “GLKKKIKEVGKEAAKAAAKAAGKAALGAVSEAV [K3K4B2]”, the “A. baumannii MIC” value in series [1] stood at 6.25 µg/mL. Also, the “A. baumannii MBC” value in series [2] is 12.5 µg/mL.
“GLWSKIKEVGKEAAKAAAKAAGKAALGAVSEAV-OH [B2]”: the “A. baumannii MIC” value in series [1] was 12.5 µg/mL. Further, in series [2], the “A. baumannii MBC” value is 25 µg/mL.
Take “lactoferricin (17–30): other AMP from the literature (CLAAPRKNVRWCTI; ends and bridges not checked; cysteine pairing not given here; UniProt P24627 17-30, looked up, fragment)”: the MIC in series [6] is 128 µg/mL. For the same compound, the “cytotoxicity at lower concentrations” value in series [7] (1X and 2X MIC) is given as “negligible cytotoxicity”. Besides, the “cytotoxicity at 4X MIC” value in series [7] (4X MIC) is “slightly higher cytotoxicity”.
